Test results taken from a melting point compilation (Tetko et al.; mined from patent text by program, amines drawn as free bases though some values may be those of a salt).

Row | SMILES | melting point
1 | O=C1CCC(N2Cc3c(OCc4ccc(CN5CCN(c6ccccn6)CC5)cc4)cccc3C2=O)C(=O)N1 (stereo unspecified) | 165 to 167 °C
2 | CN(C)C=Cc1cccnc1C#N | 71.5 to 72 °C
3 | CC1COc2c(N3CCC(n4cncn4)C3)c(F)cc3c(=O)c(C(=O)O)cn1c23 (single isomer, unassigned; (-)) | 229 to 231 °C
4 | CC(C)(C)OC(=O)N1CC=C(c2cnc3c(c2)N(Cc2cc(Cl)ccc2Cl)CCN3)CC1 | 92 to 95 °C
5 | O=C(O)C[C@H]1C[C@H](C(=O)O)Nc2cc(Cl)cc(Cl)c21 (relative stereo) | 229 to 231 °C
6 | C[C@H]1COS(=O)(=O)N1C(=O)OC(C)(C)C | 121 to 122 °C
7 | CCCC1(CCC)c2cc(-c3nc4cc(C)ccc4o3)ccc2-c2cc(OC)c(-c3nc4cc(C)ccc4o3)cc21 | 240 to 248 °C
8 | CCOC(=O)COc1c(C)cc(C(OC)(C(F)(F)F)C(F)(F)F)cc1C | 97 to 98 °C
9 | Cc1c(SCCCN2CCN(Cc3ccc(Cl)s3)CC2)ccnc1CS(=O)c1nc2ccccc2[nH]1 (stereo unspecified) | 54 to 58 °C
10 | O=C(O)[C@H](CC1CCCCC1)n1cccc1 | 78 to 80 °C
11 | CC(C)NCC1COC(=O)C1(c1ccccc1)c1ccccc1 (stereo unspecified) | 78 to 80 °C
12 | CCC1C(C)=NN=C(c2ccccc2C)c2cc(OC)c(OC)cc21 (stereo unspecified) | 170 to 171 °C
13 | FC(F)(F)c1ccc(-c2cc(C3CC3)cc(Cl)n2)cc1 | 89 to 93 °C
14 | O=C(Cl)C(OCc1ccc(-c2ccc(Cl)cc2)cc1)(C(F)(F)F)C(F)(F)F | 30 to 35 °C
15 | O=C(C=Cc1ccc(C(F)(F)F)cc1)N1CCc2c([nH]c3ccccc23)C1c1ccccc1 (stereo unspecified) | 211 °C
16 | N#Cc1nn(-c2c(Cl)cc(C(F)(F)F)cc2Cl)c(N)c1C1C=CCCCC1 (stereo unspecified) | 158 to 159 °C
17 | COC(=O)c1cccc(C(=O)NC2N=C(c3ccccc3F)c3ccccc3N(CC(=O)N3CC4CCC(CC4)C3)C2=O)c1 (racemic) | 166 to 177 °C
18 | Nc1nc(N)c2ncn(COC(CO)CO)c2n1 | 176 to 177 °C
19 | COc1cc2c(=O)n3cccc3cnc2cc1OCc1ccccc1 | 58 to 61 °C
20 | O=CNC1Cc2cc(Br)ccc2N(C=O)C1 (stereo unspecified) | 174 to 178 °C
21 | CCc1ccc(Cl)c(CC)c1NS(=O)(=O)c1cc(S(=O)(=O)Nc2c(CC)ccc(Cl)c2CC)c2cc(O)ccc2c1 | 142 to 144 °C
22 | N=C(NO)c1ccc(-c2ccc(O)c(-c3nc4cc(C(=N)NO)ccc4[nH]3)c2)cc1 | 319 to 322 °C
23 | N#Cc1ccc(COc2ccc3c(c2)CCNC3=O)cc1 | 158 to 160 °C
24 | CCCCC1CCC2(C)C(=CCC3C4CCC(=O)C4(C)CCC32)C1 (stereo unspecified) | 84 to 86 °C
25 | COc1ccc(-c2cc(-c3ccccc3)c(-c3ccccc3)s2)c(OC)c1 | 107 to 110 °C
26 | NC(=O)c1ccc(N2CCN(Cc3cn4cc(Cl)ccc4n3)CC2)c(F)c1 | 253 to 255 °C
27 | COC1(c2cc(F)cc(S(=O)(=O)c3ccc4c(c3)OCCC4=NO)c2)CCOCC1 | 209 to 210 °C

Row | SMILES | melting point
28 | CC(C)(S)[C@H]1C[C@H](C(=O)O)CS1 (relative stereo) | 97 to 98.3 °C
29 | C[C@]1(COc2ccc(N3CCN(C(=O)c4ccc(OC(F)(F)F)cc4)CC3)cc2)Cn2cc([N+](=O)[O-])nc2O1 | 202 to 203 °C
30 | O=C1[C@@H](O)[C@@H]2OCCC[C@@H]2N1Cc1ccccc1 (relative stereo) | 136 to 138 °C
31 | CCOc1cc(C(F)(F)F)nc(N)n1 | 114 to 116 °C
32 | Cc1ccccc1-n1c(CSc2ncnc3[nH]cnc23)nc2cccc(Cl)c2c1=O | 214 °C
33 | CC12CC(=O)C3C(CCC4CC5OC5CC43C)C1CCC2C#N (stereo unspecified) | 206 to 208 °C
34 | Cc1c(C(=O)O)cc(Cl)c2c1C(=O)CCS2 | 190 to 192 °C
35 | Clc1ccc2c(c1)CNC2 | 49 to 50 °C
36 | O=C1NC=N[C@H]2CCCC[C@@H]12 (relative stereo) | 133 to 134 °C
37 | CC(=O)Nc1ccc2c(c1)CN(C)CC2 | 157 to 159 °C
38 | CCOC1CC2(C)C(CCC3C4CCC(=O)C4(C)CC(N)C32)CC1O (stereo unspecified) | 144 to 148 °C
39 | Ic1ccc2c(c1)ncn2-c1cccc(-n2cccn2)c1 | 209 to 211 °C
40 | Cc1ccc(-c2cc3cc(C(=O)O)ccc3o2)cc1 | 279 to 283 °C
41 | CS(=O)(=O)OC[C@@H]1CCC(=O)N1 | 72 to 74 °C
42 | COc1ccc(C2=NN(C3Cc4ccccc4C3)C(=O)[C@H]3CC=CC[C@@H]23)cc1OC (relative stereo) | 163 to 164 °C
43 | Nc1cccc(C2CN3CCSC3=N2)c1 (stereo unspecified) | 177 to 179 °C
44 | O=c1[nH]c2cc(Cl)ccc2n1C1CCN(Cc2ccnc(-c3ccc(Cl)cc3)c2)CC1 | 186 to 188 °C
45 | CC(C)C(=O)N(C(=O)N(C)C)c1snc(C(C)C)c1C#N | 127 to 129 °C
46 | O=c1ccn(C2CC(O)C(COC3(c4ccccc4)c4ccccc4Oc4ccccc43)O2)c(=O)[nH]1 (stereo unspecified) | 157 to 160 °C
47 | O=c1oc2c(c(O)c1C(c1ccccc1)C1CC1)CCCCC2C(O)C1CC1 (stereo unspecified) | 88 to 90 °C
48 | COc1cc2cnc(Cl)nc2cc1OC | 237 to 238 °C
49 | Nc1c([N+](=O)[O-])ccc(Oc2cccc(Cl)c2)c1Cl | 101 to 102 °C
50 | CNC(=O)ON=C1SCOC1C (stereo unspecified) | 70 to 71.5 °C
51 | C=C1C(=O)Nc2ccc(C(F)(F)F)cc2CC1c1ccc(OC)cc1 (stereo unspecified) | 181 to 183 °C
52 | COc1ccccc1C=C1CS(=O)(=O)CC(=Cc2ccccc2OC)C1=O | 198 to 200 °C
53 | CN(C)C1(C(N)=O)CCCCC1 | 65 to 69 °C

Next, values leading:

Row | melting point | SMILES
54 | 124 to 126 °C | CCCc1cc(C(O)=S)cc(N)c1C(=O)c1ccccc1
55 | 59 to 60 °C | COC1=C(OC)C(=O)C(CCCCCCCCCC(=O)O)=C(C)C1=O
56 | 166 to 168 °C | CC(=O)Nc1nc(C)c(CCN2CCN(C(c3ccccc3)c3ccccc3)CC2)s1
57 | 106 to 110 °C | NC(Oc1ccccc1)C(O)CCCNc1ccc(Br)cc1 (stereo unspecified)
58 | > 290 °C | CCCn1c(=O)c2[nH]c(/C=C/c3ccc(Cl)cc3)nc2n(CCC)c1=O
59 | 166 to 168 °C | CN1CCN(CCCn2c(NC(=O)c3ccc(Cl)c(Cl)c3)nc3ccccc32)CC1
60 | 230 °C | CCN(CC1Cc2ccccc2N1CC)C(=N)N (stereo unspecified)
61 | 148 °C | CC(C)(C)OC(=O)[C@@H]1CS[C@H](c2c(F)cccc2Cl)N1C(=O)CNC(=O)Nc1cccc(C(=O)O)c1
62 | 100 to 105 °C | CC(COc1ccc(CC2SC(=O)NC2=O)cc1)NCC(O)c1cccc(C(F)(F)F)c1 (stereo unspecified)
63 | 142 °C | CCOC(=O)c1c(SCc2ccc(OC)cc2)[nH]c2cc(Cl)c(F)cc2c1=O
64 | 182 to 183 °C | CCCCn1c(COCC)nc2c(N)nc3ccc(Br)cc3c21
65 | 195 to 197 °C | NC(=O)c1nnsc1Nc1ccccc1
66 | 115 to 117 °C | CCCOc1ccccc1-c1nc2sccc2c(=O)[nH]1
67 | 110 to 112 °C | N#CCSC(C(=O)O)c1ccccc1 (stereo unspecified)
68 | 284 °C | CC(=O)Nc1ccc2c(c1)CCC1CC(=O)NN=C21 (stereo unspecified)
69 | 179 to 180 °C | CCOC(=O)C(C)(C)n1c(=O)[nH]c2ccc(Cl)cc2c1=O
70 | 198 to 202 °C | CCC(C(=O)O)c1ccc(C(CC)C(=O)O)cc1 (stereo unspecified)
71 | 215 to 216 °C | CCCCn1nc2c(N)nc3ccccc3c2c1CC
72 | 159 to 161 °C | COc1cn(-c2ccc(-n3cccn3)cc2F)nc(C(C)=O)c1=O
73 | 184 °C | CCOCn1c(C(=O)c2cc(C)cc(C)c2)c(CC)c(=O)[nH]c1=O
74 | > 300 °C | O=c1ccc2c(-n3cncn3)nccc2[nH]1
75 | 178 to 180 °C | Cc1cc(CC(=O)OC(C)(C)C)ccc1NC(=O)Nc1ccccc1C(F)(F)F
76 | 130 to 135 °C | Cc1noc(C)c1S(=O)(=O)n1cnc2cnccc21
77 | 88 to 91 °C | C=CCN1CCC(=O)N(c2c(C)cccc2C)C1=S

Row | melting point | SMILES
78 | 251 to 252 °C | O=C(Nc1cc(Cl)ccc1O)c1cc(Cl)cc(Cl)c1
79 | 147 to 150 °C | O=C(O)COc1cc(F)ccc1C(=S)NCc1cccc([N+](=O)[O-])c1
80 | 180 to 182 °C | CCOc1ccc(C(=O)Nc2ccccc2NC(=O)c2cccc(C(N)=NO)c2)cc1
81 | 58 to 60.5 °C | Cc1ccc(C(=O)c2ccc(Cl)cc2)c(Cl)c1
82 | 140 to 144 °C | CC1C(c2ccc(Cl)cc2Cl)CC(=O)N1O (stereo unspecified)
83 | 179 °C | COc1ccc(CCN(C)CCc2ccc(NC(=O)c3cccc4c(=O)c5ccccc5[nH]c34)cc2)cc1
84 | 175 to 177 °C | COc1cc(N)c(Cl)cc1C(=O)NCC1CCN(CCCS(=O)(=O)Cc2ccc(Cl)cc2)CC1
85 | 185 to 186 °C | COc1ccc(C2=NN(c3cccc(C(=O)O)c3)C(=O)[C@H]3CC=CC[C@@H]23)cc1OC (relative stereo)
86 | 128 °C | OC[C@@H]1CCc2ccc3ncccc3c2O1
87 | 40 °C | CC(C)(C)OC(=O)NCCCBr
88 | 114 to 116 °C | CN1C(=O)N2C(=NC1(C)C)N(C(=O)NC1CCCCC1)c1ccccc12
89 | 127 to 130 °C | CCCCNC(=O)c1cnc2cccc(C)n2c1=O
90 | 152 to 153 °C | CC(=O)NC[C@H]1CN(c2ccc(N3CC(C)(O)C3)c(F)c2)C(=O)O1
91 | 108 to 116 °C | CC(CCc1ccccc1)NCC(O)c1ccc(C(N)=O)s1 (stereo unspecified)
92 | 155 to 156 °C | NC(=O)CNC(=O)c1cccc(-c2cccc3cc(Cc4cccc(CO)c4)sc23)c1
93 | 107 to 116 °C | Cc1ccc(C(=O)NCc2cc(C(C)C)no2)cc1
94 | 40 to 42 °C | COC(=O)c1ccc(CC(=O)c2ccccc2Cl)cc1
95 | 157 to 159 °C | CC(=O)Oc1ccc2c(=O)c(C=O)coc2c1
96 | 145 to 147 °C | COc1ccc(CCCCNC(=O)C(F)(F)F)cc1S(N)(=O)=O
97 | 193 to 194 °C | Cc1noc(NC(=O)N2CCN(c3nccc(-c4cccc(F)c4F)n3)CC2)c1C
98 | 160 to 162 °C | CCOC(=O)c1cn(-c2ccc(F)cc2F)c2c(F)c(F)c(F)c(F)c2c1=O
99 | 166 to 170 °C | COC(=O)c1cn(C)c2cc(OC)c(C(F)(F)F)cc12
100 | 135 to 137 °C | CN(C)C(=O)C1(N2C(=O)c3cccc(Cl)c3C2=O)CCCCC1
101 | 140 to 150 °C | O=S(=O)(Nc1cccc(OCc2ncc3ccccc3n2)c1)C(F)(F)F
